The record followed here is patent publication US10947227B2, “Tricyclic heterocyclic compounds as sting activators” (Incyte Corporation, priority 2018, dated 2021).

Structures are written as SMILES. Some results are limits rather than exact numbers.

The test concerns IRF3 activation in THP-1 Dual Cells. The test is described as follows: IRF3 activation assay in THP-1 Dual Cells (QUANTI-Blue readout). The test is classed as cell-based. Conditions: Homo sapiens, THP1-Dual, 24 h. As for the experimental part:
THP-1 Dual Cells (Invivogen) were maintained in RPMI1640 medium with addition of 10% FBS, 100 μg/ml zeocin, 10 μg/ml blasticidin. Cells were added in a 96-well flat bottom assay plate at 100,000 per well in 100 μL complete RPMI medium. Test compounds were prepared by serial dilution in complete RPMI medium and 100 μL test compounds were transferred to each corresponding well. The assay plate was incubated at 37° C., 5% CO2 for 24 hours. After the overnight incubation, 20 μL of the culture supernatants were collected, followed by addition of 180 μL of QUANTI-Blue (Invivogen) to assess IRF3 activity. The amount of IRF3 activation was assessed by reading the absorbance at 620-655 nm with a microplate reader 2 hours later. The culture supernatant from the untreated THP-1 cells was used as the negative control. To determine the NF-κB activation, another 20 μL of culture supernatant were transferred to a 96-well white plate, followed by addition of 50 μL of Quanti-Luc™ assay solution (Invivogen). The amount of NF-κB activation induced by the test compounds were determined by the luminescence above the untreated control. EC50 determination was performed by fitting the curve of percent control activity versus the log of the compound concentration using the GraphPad Prism 6.0 software.

In the case of `CCn1nc(C)cc1C(=O)Nc1nc2cc(C(N)=O)cc(C)c2n1C/C=C/Cn1c2ccc(C(N)=O)cc2c2cnc(-c3cc(C)nn3CC)nc21` [Example 1, (E)-9-(4-(5-carbamoyl-2-(1-ethyl-3-methyl-1H-pyrazole-5-carboxamido)-7-methyl-1H-benzo[d]imidazol-1-yl)but-2-enyl)-2-(1-ethyl-3-methyl-1H-pyrazol-5-yl)-9H-pyrimido[4,5-b]indole-6-carboxamide], the EC50 runs as follows: (Table 1, 24 hours incubation) less than 1000 nM; (Table 2, 24 hours incubation) 50 to 200 nM.
With `CCn1nc(C)cc1C(=O)Nc1nc2cc(C(N)=O)cc(C)c2n1C/C=C/Cn1c2ccccc2c2cnc(-c3cc(C)nn3CC)nc21` [Example 2, (E)-1-(4-(2-(1-ethyl-3-methyl-1H-pyrazol-5-yl)-9H-pyrimido[4,5-b]indol-9-yl)but-2-enyl)-2-(1-ethyl-3-methyl-1H-pyrazole-5-carboxamido)-7-methyl-1H-benzo[d]imidazole-5-carboxamide], the EC50 is, setting by setting: (Table 1, 24 hours incubation) less than 1000 nM; (Table 2, 24 hours incubation) 200 to 500 nM.
For the compound `CCn1nc(C)cc1C(=O)Nc1nc2cc(C(N)=O)cc(C)c2n1C/C=C/Cn1c2ccc(C(N)=O)cc2c2cnc(-c3cc(C)nn3C)nc21` [Example 3, (E)-9-(4-(5-carbamoyl-2-(1-ethyl-3-methyl-1H-pyrazole-5-carboxamido)-7-methyl-1H-benzo[d]imidazol-1-yl)but-2-enyl)-2-(1,3-dimethyl-1H-pyrazol-5-yl)-9H-pyrimido[4,5-b]indole-6-carboxamide], the EC50 (Table 1, 24 hours incubation) is less than 1000 nM.
`CCn1nc(C)cc1C(=O)Nc1nc2cc(C(N)=O)cc(OC)c2n1C/C=C/Cn1c2ccc(C(N)=O)cc2c2cnc(-c3cc(C)nn3CC)nc21` [Example 4, (E)-9-(4-(5-carbamoyl-2-(1-ethyl-3-methyl-1H-pyrazole-5-carboxamido)-7-methoxy-1H-benzo[d]imidazol-1-yl)but-2-enyl)-2-(1-ethyl-3-methyl-1H-pyrazol-5-yl)-9H-pyrimido[4,5-b]indole-6-carboxamide]: the concentration for a half-maximal effect (EC50) is, setting by setting: (Table 1, 24 hours incubation) less than 1000 nM; (Table 2, 24 hours incubation) 500 to 1000 nM.
Turning to `CCn1nc(C)cc1C(=O)Nc1nc2cc(C(N)=O)cc(C)c2n1C/C=C/Cn1c2ccc(C(N)=O)cc2c2ccc(-c3cc(C)nn3CC)nc21` [Example 5, (E)-9-(4-(5-carbamoyl-2-(1-ethyl-3-methyl-1H-pyrazole-5-carboxamido)-7-methyl-1H-benzo[d]imidazol-1-yl)but-2-en-1-yl)-2-(1-ethyl-3-methyl-1H-pyrazol-5-yl)-9H-pyrido[2,3-b]indole-6-carboxamide], the EC50 is, setting by setting: (Table 1, 24 hours incubation) less than 1000 nM; (Table 2, 24 hours incubation) 50 to 200 nM.
For the compound `CCCn1nc(C)cc1-c1ncc2c3cc(C(N)=O)ccc3n(C/C=C/Cn3c(NC(=O)c4cc(C)nn4CC)nc4cc(C(N)=O)cc(C)c43)c2n1` [Example 6, (E)-9-(4-(5-carbamoyl-2-(1-ethyl-3-methyl-1H-pyrazole-5-carboxamido)-7-methyl-1H-benzo[d]imidazol-1-yl)but-2-enyl)-2-(3-methyl-1-propyl-1H-pyrazol-5-yl)-9H-pyrimido[4,5-b]indole-6-carboxamide], the EC50 was less than 200 nM (Table 1, 24 hours incubation) and less than 50 nM (Table 2, 24 hours incubation).
Consider `CCn1nc(C)cc1C(=O)Nc1nc2cc(C(N)=O)cc(C)c2n1C/C=C/Cn1c2ccc(C(N)=O)cc2c2cnc(-c3ccnn3CC)nc21` [Example 7, (E)-9-(4-(5-carbamoyl-2-(1-ethyl-3-methyl-1H-pyrazole-5-carboxamido)-7-methyl-1H-benzo[d]imidazol-1-yl)but-2-enyl)-2-(1-ethyl-1H-pyrazol-5-yl)-9H-pyrimido[4,5-b]indole-6-carboxamide], for which the concentration for a half-maximal effect (EC50) by setting is: (Table 1, 24 hours incubation) less than 1000 nM; (Table 2, 24 hours incubation) 200 to 500 nM.
In the case of `CCc1nn(C)cc1-c1ncc2c3cc(C(N)=O)ccc3n(C/C=C/Cn3c(NC(=O)c4cc(C)nn4CC)nc4cc(C(N)=O)cc(C)c43)c2n1` [Example 8, (E)-9-(4-(5-carbamoyl-2-(1-ethyl-3-methyl-1H-pyrazole-5-carboxamido)-7-methyl-1H-benzo[d]imidazol-1-yl)but-2-enyl)-2-(3-ethyl-1-methyl-1H-pyrazol-4-yl)-9H-pyrimido[4,5-b]indole-6-carboxamide], the EC50 is less than 1000 nM (Table 1, 24 hours incubation) and 500 to 1000 nM (Table 2, 24 hours incubation).
For `CCn1nc(C)cc1C(=O)Nc1nc2cc(C(N)=O)cc(C)c2n1C/C=C/Cn1c2ccc(C(N)=O)cc2c2cnc(-c3cc(C(F)(F)F)nn3CC)nc21` [Example 9, (E)-9-(4-(5-carbamoyl-2-(1-ethyl-3-methyl-1H-pyrazole-5-carboxamido)-7-methyl-1H-benzo[d]imidazol-1-yl)but-2-enyl)-2-(1-ethyl-3-(trifluoromethyl)-1H-pyrazol-5-yl)-9H-pyrimido[4,5-b]indole-6-carboxamide], in that order: less than 1000 nM and 200 to 500 nM.
Compound `CCn1nc(C)cc1C(=O)Nc1nc2cc(C(N)=O)cc(C)c2n1C/C=C/Cn1c2nc(-c3cc(C)nn3CC)ncc2c2cc(C(N)=O)cc(OC)c21` [Example 10, (E)-9-(4-(5-carbamoyl-2-(1-ethyl-3-methyl-1H-pyrazole-5-carboxamido)-7-methyl-1H-benzo[d]imidazol-1-yl)but-2-enyl)-2-(1-ethyl-3-methyl-1H-pyrazol-5-yl)-8-methoxy-9H-pyrimido[4,5-b]indole-6-carboxamide] yielded an EC50 (Table 1, 24 hours incubation) of less than 200 nM and an EC50 (Table 2, 24 hours incubation) of less than 50 nM.
For `CCn1nc(C)cc1C(=O)Nc1nc2cc(C(N)=O)cc(C)c2n1C/C=C/Cn1c2nc(-c3cc(C)nn3CC)ncc2c2cc(C(N)=O)cc(OCCCN3CCOCC3)c21` [Example 11, (E)-9-(4-(5-carbamoyl-2-(1-ethyl-3-methyl-1H-pyrazole-5-carboxamido)-7-methyl-1H-benzo[d]imidazol-1-yl)but-2-enyl)-2-(1-ethyl-3-methyl-1H-pyrazol-5-yl)-8-(3-morpholinopropoxy)-9H-pyrimido[4,5-b]indole-6-carboxamide], the EC50 is, setting by setting: (Table 1, 24 hours incubation) less than 200 nM; (Table 2, 24 hours incubation) less than 50 nM.
Regarding `CCn1nc(C)cc1C(=O)Nc1nc2cc(C(N)=O)cc(C)c2n1C/C=C/Cn1c2nc(-c3cc(C)nn3CC)ncc2c2cc(C(N)=O)cc(OCCCOC)c21` [Example 12, (E)-9-(4-(5-carbamoyl-2-(1-ethyl-3-methyl-1H-pyrazole-5-carboxamido)-7-methyl-1H-benzo[d]imidazol-1-yl)but-2-enyl)-2-(1-ethyl-3-methyl-1H-pyrazol-5-yl)-8-(3-methoxypropoxy)-9H-pyrimido[4,5-b]indole-6-carboxamide], the EC50 reads like this: (Table 1, 24 hours incubation) less than 200 nM; (Table 2, 24 hours incubation) less than 50 nM.
As for `CCn1nc(C)cc1C(=O)Nc1nc2cc(C(N)=O)cc(C)c2n1C/C=C/Cn1c2nc(-c3cc(C)nn3CC)ncc2c2cc(C(N)=O)cc(OCCCO)c21` [Example 13, (E)-9-(4-(5-carbamoyl-2-(1-ethyl-3-methyl-1H-pyrazole-5-carboxamido)-7-methyl-1H-benzo[d]imidazol-1-yl)but-2-enyl)-2-(1-ethyl-3-methyl-1H-pyrazol-5-yl)-8-(3-hydroxypropoxy)-9H-pyrimido[4,5-b]indole-6-carboxamide], the EC50 by setting is: (Table 1, 24 hours incubation) less than 200 nM; (Table 2, 24 hours incubation) less than 50 nM.
The like results for `CCn1nc(C)cc1C(=O)Nc1nc2cc(C(N)=O)cc(C)c2n1C/C=C/Cn1c2nc(-c3cc(C)nn3CC)ccc2c2cc(C(N)=O)cc(OC)c21` [Example 14, (E)-9-(4-(5-carbamoyl-2-(1-ethyl-3-methyl-1H-pyrazole-5-carboxamido)-7-methyl-1H-benzo[d]imidazol-1-yl)but-2-enyl)-2-(1-ethyl-3-methyl-1H-pyrazol-5-yl)-8-methoxy-9H-pyrido[2,3-b]indole-6-carboxamide] were, in that order, less than 200 nM and less than 50 nM.
Regarding `CCn1nc(C)cc1C(=O)Nc1nc2cc(C(N)=O)cc(OCCCOC(=O)c3cc(C)nn3CC)c2n1C/C=C/Cn1c2nc(-c3cc(C)nn3CC)ncc2c2cc(C(N)=O)cc(OC)c21` [Example 15, (E)-3-((5-carbamoyl-1-(4-(6-carbamoyl-2-(1-ethyl-3-methyl-1H-pyrazol-5-yl)-8-methoxy-9H-pyrimido[4,5-b]indol-9-yl)but-2-en-1-yl)-2-(1-ethyl-3-methyl-1H-pyrazole-5-carboxamido)-1H-benzo[d]imidazol-7-yl)oxy)propyl 1-ethyl-3-methyl-1H-pyrazole-5-carboxylate], the half-maximal effective concentration (EC50) reads like this: (Table 1, 24 hours incubation) less than 200 nM; (Table 2, 24 hours incubation) less than 50 nM.
For the compound `CCn1nc(C)cc1C(=O)Nc1nc2cc(C(N)=O)cc(OCCCO)c2n1C/C=C/Cn1c2nc(-c3cc(C)nn3CC)ncc2c2cc(C(N)=O)cc(OC)c21` [Example 16, (E)-9-(4-(5-carbamoyl-2-(1-ethyl-3-methyl-1H-pyrazole-5-carboxamido)-7-(3-hydroxypropoxy)-1H-benzo[d]imidazol-1-yl)but-2-en-1-yl)-2-(1-ethyl-3-methyl-1H-pyrazol-5-yl)-8-methoxy-9H-pyrimido[4,5-b]indole-6-carboxamide], the EC50 was less than 200 nM (Table 1, 24 hours incubation) and less than 50 nM (Table 2, 24 hours incubation).
With `CCn1nc(C)cc1C(=O)Nc1nc2cc(C(N)=O)cc(OCCCOC(=O)c3cc(C)nn3CC)c2n1C/C=C/Cn1c2ccc(C(N)=O)cc2c2cnc(-c3cc(C)nn3CC)nc21` [Example 17, (E)-3-((5-carbamoyl-1-(4-(6-carbamoyl-2-(1-ethyl-3-methyl-1H-pyrazol-5-yl)-9H-pyrimido[4,5-b]indol-9-yl)but-2-en-1-yl)-2-(1-ethyl-3-methyl-1H-pyrazole-5-carboxamido)-1H-benzo[d]imidazol-7-yl)oxy)propyl 1-ethyl-3-methyl-1H-pyrazole-5-carboxylate], the EC50 by setting is: (Table 1, 24 hours incubation) less than 200 nM; (Table 2, 24 hours incubation) less than 50 nM.

The EC50 is the concentration giving half of the maximal effect.
